In PubChem BioAssay (NCI) one finds TGI and GI50 data, which are given here for 29 compounds.

“And” between values parts separate entries of the source, which are not always exact repeats. Equal entries are not always repeated.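 Compound exposure: 48 hours, 5 concentrations, 96-well plates. Here, GI50 denotes the concentration required for 50% inhibition of growth. At the TGI there is no net growth.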 Some results are limits rather than exact numbers.

Holding throughout (assay): NCI tumour cell line growth inhibition, 48 h
The subject of experiment [1] is SR leukemia.
For experiment [2], the system named is CAKI-1 renal.
Experiment [3] concerns SK-MEL-2 melanoma.
Experiment [4] relates to SK-MEL-28 melanoma.
The subject of experiment [5] is OVCAR-4 ovarian.
Experiment [6] has as its system MOLT-4 leukemia.
Experiment [7] deals with 786-0 renal.
The test system of experiment [8] is EKVX NSCLC.
Experiment [9] relates to SN12C renal.

On to `Nc1c(O)cc(N=C2C(=O)C=CC=C2C(=O)O)c(O)c1C(=O)O`, for which the TGI in experiment [1] is more than 100 µM; in [2] it was more than 100 µM; in experiment [3] it was more than 91.2 µM; in experiment [4], more than 41.3 µM; in experiment [5], more than 100 µM; in experiment [6], more than 100 µM. Moreover, the TGI in [7], in experiment [8] and in experiment [9] was more than 100 µM each time.
For the compound `Cc1cc(-c2ccccc2)nc(Nc2nc3ccccc3o2)n1`, the TGI in [1], in experiment [2], in experiment [3], in experiment [4], in experiment [5] and in experiment [6] was more than 100 µM throughout. Also, the TGI in experiment [7], in experiment [8] and in experiment [9] was more than 100 µM throughout.
For the compound `COC(=O)C1=C(c2ccc(OC)c(OC)c2)OC(c2cc(OC)c(OC)c(OC)c2)C1` (stereo unspecified), the TGI in experiment [2] was more than 100 µM; in experiment [3] it was more than 100 µM; in experiment [4], more than 100 µM; in experiment [5], more than 100 µM; in experiment [7], 74.4 µM; in experiment [8], more than 100 µM. In experiment [9], this compound showed a TGI of more than 100 µM.
Turning to `CN=C(NC(=S)N(C)C)N(C)C`, the TGI in [1], in [2], in [3], in experiment [4], in experiment [5] and in experiment [6] was more than 100 µM throughout. The TGI in experiment [7], in experiment [8] and in experiment [9] was more than 100 µM each time.
Take `Cc1cccc(C(C)C)c1N1C(=O)C(=O)C(c2nc3ccccc3o2)C(=O)C1=O`: the TGI in [1] is more than 100 µM; in experiment [2], more than 100 µM; in experiment [3] it was more than 100 µM; in experiment [4], more than 100 µM; in experiment [5], more than 100 µM; in experiment [6] it was 63.8 µM. Moreover, the TGI in experiment [7], in experiment [8] and in [9] was more than 100 µM in each case.
As to `N#CC1CCCCOCCOCCOCCOCCOCCCCCC1=O` (stereo unspecified), the TGI in [1], in [2], in experiment [3], in experiment [4], in experiment [5] and in experiment [6] was more than 100 µM each time. In addition, the TGI in experiment [7], in experiment [8] and in [9] was more than 100 µM each time.
In the case of `CCCCC(C)C(OC(=O)CC(CC(=O)O)C(=O)O)C(CC(C)CC(O)CCCCC(O)CC(O)C(C)N)OC(=O)CC(CC(=O)O)C(=O)O` (stereo unspecified), the TGI in experiment [1], in experiment [2], in [3], in experiment [4], in experiment [5] and in [6] was more than 100 µM each time. For the same compound, the TGI in [7], in experiment [8] and in [9] was more than 100 µM in each case.
Turning to `Oc1ccc(O)c(-c2cc(-c3ccc(Cl)cc3)nn2-c2ccccc2)c1`, the GI50 in [1] was 3000 nM; in experiment [2], 18800 nM; in experiment [3] it was 23.4 µM; in [6], 3.3 µM; in [7], 2210 nM; in experiment [8], 23.9 µM. In addition, in [9], the GI50 is 2880 nM. Besides, the TGI in experiment [1] was 14.4 µM; in experiment [2] it was 39.6 µM; in [3], more than 100 µM; in [6] it was more than 100 µM; in experiment [7] it was 5.4 µM; in experiment [8], 51.1 µM. Moreover, the TGI in [9] came to 7.19 µM.
Regarding `C#CC[N+](C)(CC#C)CC#C`, the TGI in experiment [2], in experiment [3], in experiment [4], in [5], in experiment [6] and in [7] was more than 100 µM in each case. Besides, the TGI in experiment [8] and in [9] was more than 100 µM throughout.
On to `COc1cc(NS(C)(=O)=O)ccc1Nc1c2ccccc2nc2ccccc12`, for which the GI50 was 47.5 nM and 24.5 nM in [1]; 550 nM and 213 nM and 308 nM in [2]; 18 µM and 4.55 µM and 5.73 µM in experiment [3]; 12.6 µM and 5.08 µM in [5]; 0.181 µM and 0.0453 µM and < 0.025 µM in [6]; 458 nM and 279 nM and 270 nM in [7]. Moreover, the GI50 in experiment [8] was 4.77 µM and 3.01 µM and 2.84 µM; in [9], 432 nM and 273 nM and 307 nM. Besides, the TGI in [7] is 1.77 µM [middle of 8 runs].
`Cc1ccc(/C=C2\CN(C(=O)C(Cl)Cl)C/C(=C\c3ccc(C)cc3)C2=O)cc1`: the GI50 in experiment [1] is 110 nM; in experiment [2], 273 nM; in experiment [3], 1.8 µM; in [4] it was 0.319 µM; in [5], 0.322 µM; in experiment [7] it was 194 nM. Further, the GI50 in experiment [8] was 0.348 µM. The TGI in experiment [1] was more than 100 µM; in experiment [2], 1.01 µM; in [3], 5.5 µM; in experiment [4], 1.19 µM; in experiment [5] it was more than 100 µM; in experiment [7], 0.397 µM. For the same compound, the TGI in [8] amounted to 2.31 µM.
As for `O=C(CC1(O)C(=O)Nc2ccc(Br)cc21)c1ccc(Cl)cc1Cl` (stereo unspecified), the TGI in experiment [1] was 50.7 µM; in experiment [3], more than 100 µM; in experiment [4] it was more than 100 µM; in [5], more than 100 µM; in [6], 68 µM; in experiment [7] it was more than 100 µM. Further, the TGI in experiment [8] and in experiment [9] was more than 100 µM each time.
With `O=[N+]([O-])c1ccc(Cl)c(C2CC(c3cccc4ccccc34)=Nc3ccccc3S2)c1` (stereo unspecified), the TGI in experiment [1] is 68.9 µM; in experiment [2], more than 100 µM; in experiment [3], 62.8 µM; in experiment [4], more than 84.2 µM; in experiment [5], more than 100 µM; in experiment [6] it was more than 56.9 µM. For the same compound, the TGI is 30.4 µM in experiment [7], more than 100 µM in [8] and more than 59.4 µM in experiment [9].
On to `S=c1nc(COc2ccc(Cl)cc2Cl)[nH][nH]1`, for which the TGI in [1], in [2], in experiment [3], in experiment [4], in experiment [5] and in [6] was more than 100 µM throughout. Further, the TGI in experiment [7], in experiment [8] and in experiment [9] was more than 100 µM each time.
`CS(=O)(=O)NNS(=O)(=O)c1ccccc1`: the TGI in experiment [1], in experiment [2], in [3], in [5], in [6] and in experiment [7] was more than 100 µM in each case. The TGI in [8] and in experiment [9] was more than 100 µM in each case.
Take `Cc1nnc2c3nnc(C)n3c3ccccc3n12`: the TGI in experiment [2], in experiment [3], in experiment [4], in experiment [5], in experiment [6] and in experiment [7] was more than 100 µM each time. Besides, the TGI in experiment [8] and in [9] was more than 100 µM throughout.
On to `CC(=O)c1c(CN(C)c2ccccc2)n([O-])c2ccccc2[n+]1=O`, for which the GI50 was 5790 nM in [1]; more than 100 µM in experiment [3]; 38.7 µM in [4]; 29 µM in [5]; 23.9 µM in experiment [6]; 55000 nM in experiment [7]. Further, the GI50 in experiment [8] was 41.2 µM; in experiment [9], 24900 nM. In addition, the TGI in [1], in [3], in experiment [4], in [5], in [6] and in experiment [7] was more than 100 µM in each case. Also, the values for the TGI in experiment [8] and in experiment [9] were more than 100 µM and 87.4 µM, respectively.
As to `NC(=O)c1c([N+](=O)[O-])cc(C(F)(F)F)cc1[N+](=O)[O-]`, the TGI in experiment [1], in [2], in experiment [4], in experiment [5], in experiment [6] and in [7] was more than 100 µM throughout. Further, the TGI in experiment [8] and in experiment [9] was more than 100 µM throughout.
For `O=C(NCCO)c1ccc([N+](=O)[O-])cc1`, the TGI in experiment [2], in [3], in [4], in [6], in experiment [7] and in experiment [8] was more than 100 µM in each case. The compound also showed a TGI in [9] of more than 100 µM.
Turning to `C[N+](C)(C)CC1CCC/C1=N/O` (stereo unspecified), the TGI is 54.2 µM in [1]; more than 100 µM in [3]; more than 100 µM in experiment [4]; more than 100 µM in experiment [5]; more than 100 µM in experiment [6]; 44.5 µM in [7]. Besides, the TGI in [8] and in experiment [9] was more than 100 µM throughout.
Regarding `Cn1c(=O)c(NC(=O)C(Cl)(Cl)Cl)nc2ccccc21`, the TGI in experiment [2], in experiment [3], in experiment [4], in [6], in experiment [7] and in [8] was more than 100 µM each time. The compound further returned a TGI in experiment [9] of more than 100 µM.
Turning to `O=C1NC(=O)C(=Nc2cccc3c(=O)[nH][nH]c(=O)c23)C(c2nc3ccccc3s2)C1=O` (stereo unspecified), the TGI in experiment [2], in experiment [3], in [4], in experiment [5], in experiment [6] and in experiment [7] was more than 100 µM in each case. Besides, the TGI in [8] and in experiment [9] was more than 100 µM throughout.
As for `O=C(CCC(=O)Nc1ccc(Cl)c(Cl)c1)CC(=O)c1ccc(F)cc1`, the TGI in experiment [1], in experiment [2], in experiment [4], in [5], in experiment [6] and in experiment [7] was more than 100 µM in each case. Also, the TGI in [8] and in [9] was more than 100 µM throughout.
For the compound `COC(=O)CCC1CCc2c(OC)ccc(OC)c2C1=O` (stereo unspecified), the TGI in experiment [1], in experiment [3], in experiment [4], in experiment [5], in [6] and in experiment [7] was more than 100 µM each time. Besides, the TGI in [8] and in [9] was more than 100 µM in each case.
As for `Cc1ccc(NC(=O)C2C(=O)N(c3ccc(C)c(C)c3)C(=O)/C2=N\NC(N)=O)cc1C` (stereo unspecified), the TGI in [2], in experiment [3], in [4], in experiment [5], in [6] and in [7] was more than 100 µM throughout. In addition, the TGI in experiment [8] and in [9] was more than 100 µM each time.
Consider `Clc1ccc(-c2csc(Nc3cccc(-c4csc(-c5ccccc5)n4)c3)n2)cc1`, for which the GI50 in experiment [1] is 6800 nM; in [2] it was 9770 nM; in [3] it was 10.6 µM; in experiment [4], 5.93 µM; in experiment [6], 19.5 µM; in experiment [7], 10800 nM. Besides, the GI50 in experiment [8] was 8.36 µM; in experiment [9] it was 7600 nM. The TGI was 28.7 µM in [1]; 25.6 µM in [2]; 26.1 µM in experiment [3]; 15.6 µM in experiment [4]; more than 50 µM in experiment [6]; 21.1 µM in [7]. In addition, the TGI in experiment [8] was found to be 17.7 µM; in [9], 16.8 µM.
`CN(C)c1ccc(/C=C/c2ccc(/C=C/c3ccc(N(C)C)cc3)cc2)cc1`: the TGI in [2], in experiment [3], in [4], in experiment [5], in [6] and in experiment [7] was more than 100 µM in each case. In addition, the TGI in experiment [8] and in experiment [9] was more than 100 µM each time.
As for `O=C(CSc1ncn[nH]1)C[P+](c1ccccc1)(c1ccccc1)c1ccccc1`, the TGI in experiment [2], in experiment [3], in experiment [4], in [5], in experiment [6] and in experiment [7] was more than 100 µM throughout. The TGI in experiment [8] and in [9] was more than 100 µM throughout.
For `CN(C)C(=Nc1nc(=[N+](C)C)ss1)N(C)C`, the TGI in experiment [2], in experiment [3], in experiment [4], in experiment [5], in experiment [6] and in experiment [7] was more than 100 µM throughout. The TGI in experiment [8] and in [9] was more than 100 µM each time.
